Source: patent US20140005163A1 (NOVARTIS AG, priority 2010, published 2014)

Tests used:
[1] = molecular target: T1, mTOR (Homo sapiens, UniProt P42345); assay: Biochemical assay for m-TOR by TR-FRET; conditions: 8 μM ATP, 400 nM GFP-4EBP1, 0.5 nM mTOR
T1 construct: purchased Invitrogen Corporation (Carlsbad/CA, USA) PV4753
Outline: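 Enzyme 0.5 nM, GFP-4EBP1 400 nM, ATP 8 μM (all final); 50 mM HEPES pH 7.5, 10 mM MnCl2, 1 mM DTT; rt. Detection: Tb-α-p4EBP1 [pT46] 0.5 nM in EDTA, TR-FRET, 15 min. Reference compound on every plate, 16-point duplicate dilutions.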

[2] = tested on: PKB Ser473 phosphorylation in Rat1-myr-HA-p110 alpha cells; assay: Reverse protein array assay, PKB Ser473 phosphorylation in Rat1-myr-p110 alpha cells; assay type: cell-based; conditions: 0.5 h, pAkt Ser473, 30 minutes compound incubation, read-out: p-PKB IC50
Outline: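 Compound exposure lasted 30 min in Rat1 cells bearing membrane-targeted HA-p110 isoforms, using 8 serial concentrations. Arrayed lysates, each spotted at four dilutions, gave relative fluorescence signals for phospho-Ser473 PKB.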

[3] = molecular target: T2, PI3K delta (Homo sapiens, UniProt O00329); assay: PI3K delta kinase assay (Kinase-Glo luminescence); assay type: biochemical
T2 construct: for the full-length p110-d subunit are generated and fused by overlapping PCR; p85(iSH2) fusion partner (see partner chain) (N); His tag (C); made in house; host or cells: baculovirus; Tn5 (Trichoplusia ni) or TiniPro insect cells
T2 sequence (O00329 with tags, fused parts or gaps limits assumed): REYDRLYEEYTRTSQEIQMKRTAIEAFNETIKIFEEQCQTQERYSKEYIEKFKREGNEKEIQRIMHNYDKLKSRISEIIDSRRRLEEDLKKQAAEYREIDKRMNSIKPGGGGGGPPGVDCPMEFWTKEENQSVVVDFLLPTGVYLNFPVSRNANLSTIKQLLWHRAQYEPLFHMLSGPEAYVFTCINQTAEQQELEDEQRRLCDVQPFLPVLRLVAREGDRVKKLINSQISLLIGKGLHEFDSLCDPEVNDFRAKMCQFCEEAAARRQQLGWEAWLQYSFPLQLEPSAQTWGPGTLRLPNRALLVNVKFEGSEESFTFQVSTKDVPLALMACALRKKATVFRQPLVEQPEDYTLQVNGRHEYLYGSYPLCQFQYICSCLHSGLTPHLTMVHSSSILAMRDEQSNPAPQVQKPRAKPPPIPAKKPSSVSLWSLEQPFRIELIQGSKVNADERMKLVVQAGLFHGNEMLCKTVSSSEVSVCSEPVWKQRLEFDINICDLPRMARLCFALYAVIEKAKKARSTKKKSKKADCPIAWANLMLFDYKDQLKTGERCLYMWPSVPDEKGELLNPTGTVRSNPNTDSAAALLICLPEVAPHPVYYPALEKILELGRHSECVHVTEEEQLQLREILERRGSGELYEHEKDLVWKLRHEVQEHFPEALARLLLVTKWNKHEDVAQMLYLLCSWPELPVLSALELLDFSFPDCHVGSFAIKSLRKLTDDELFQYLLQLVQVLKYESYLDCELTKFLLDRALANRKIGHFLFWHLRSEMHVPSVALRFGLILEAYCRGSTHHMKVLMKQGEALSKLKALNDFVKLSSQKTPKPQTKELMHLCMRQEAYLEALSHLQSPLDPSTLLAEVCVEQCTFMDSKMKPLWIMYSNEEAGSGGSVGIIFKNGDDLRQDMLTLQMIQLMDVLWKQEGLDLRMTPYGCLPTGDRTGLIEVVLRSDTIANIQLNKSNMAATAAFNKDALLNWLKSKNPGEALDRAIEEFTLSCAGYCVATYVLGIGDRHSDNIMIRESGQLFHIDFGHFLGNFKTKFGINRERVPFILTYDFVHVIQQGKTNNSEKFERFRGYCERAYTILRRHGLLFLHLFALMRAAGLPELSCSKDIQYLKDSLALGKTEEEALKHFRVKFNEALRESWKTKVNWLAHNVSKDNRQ
Outline: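 Construct BV-1060, p85 iSH2–linker–full-length p110δ, His-tagged, at 10 nM, with 1 μM ATP and 10 μg/mL phosphatidylinositol in pH 7.5 Tris, 3 mM MgCl2, 50 mM NaCl, 0.05% CHAPS. Run 60 min at room temperature; remaining ATP read by Kinase-Glo luminescence; IC50 from 4-parameter logistic fit of 8 concentrations.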

T1 sequence (P42345 1360-2549 limits assumed): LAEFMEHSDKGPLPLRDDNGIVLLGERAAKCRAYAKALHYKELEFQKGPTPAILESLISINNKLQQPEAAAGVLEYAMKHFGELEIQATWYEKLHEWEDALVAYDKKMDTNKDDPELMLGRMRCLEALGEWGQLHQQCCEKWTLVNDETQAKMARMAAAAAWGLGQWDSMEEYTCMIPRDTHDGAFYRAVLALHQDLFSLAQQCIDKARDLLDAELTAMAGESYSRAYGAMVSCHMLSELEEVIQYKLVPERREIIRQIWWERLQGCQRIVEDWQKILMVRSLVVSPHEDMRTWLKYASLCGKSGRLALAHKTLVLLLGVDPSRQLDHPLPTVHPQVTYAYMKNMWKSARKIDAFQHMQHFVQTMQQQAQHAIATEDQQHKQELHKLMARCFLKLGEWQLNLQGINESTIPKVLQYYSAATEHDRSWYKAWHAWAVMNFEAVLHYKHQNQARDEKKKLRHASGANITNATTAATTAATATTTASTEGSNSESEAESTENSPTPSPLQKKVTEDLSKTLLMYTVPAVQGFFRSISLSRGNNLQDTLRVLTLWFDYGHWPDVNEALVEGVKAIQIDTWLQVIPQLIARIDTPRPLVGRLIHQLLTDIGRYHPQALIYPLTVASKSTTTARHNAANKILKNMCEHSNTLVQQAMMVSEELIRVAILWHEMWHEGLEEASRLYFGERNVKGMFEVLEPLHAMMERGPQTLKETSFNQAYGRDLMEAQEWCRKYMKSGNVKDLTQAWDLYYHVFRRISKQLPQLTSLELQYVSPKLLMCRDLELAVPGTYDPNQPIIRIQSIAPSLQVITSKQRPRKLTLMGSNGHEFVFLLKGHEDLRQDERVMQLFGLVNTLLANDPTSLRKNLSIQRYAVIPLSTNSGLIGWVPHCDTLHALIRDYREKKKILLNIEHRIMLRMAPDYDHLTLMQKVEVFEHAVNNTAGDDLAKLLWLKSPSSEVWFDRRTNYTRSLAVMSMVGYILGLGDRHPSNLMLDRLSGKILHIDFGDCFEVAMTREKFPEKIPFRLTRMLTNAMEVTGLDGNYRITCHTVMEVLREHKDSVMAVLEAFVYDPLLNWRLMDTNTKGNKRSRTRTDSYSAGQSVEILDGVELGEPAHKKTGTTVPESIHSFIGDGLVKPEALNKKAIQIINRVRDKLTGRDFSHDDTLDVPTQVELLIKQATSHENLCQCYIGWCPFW

Structure (SMILES)	IC50 [1] [nM]	IC50 [2] [nM]	IC50 [3] [nM]
CCOc1ccc(-c2ccc3ncc4c(c3c2)n(-c2cn(CC(=O)N3CCOCC3)nc2C)c(=O)n4C)cn1 [Example 3.10, 8-(6-Ethoxy-pyridin-3-yl)-3-methyl-1-[3-methyl-1-(2-morpholin-4-yl-2-oxo-ethyl)-1H-pyrazol-4-yl]-1,3-dihydro-imidazo[4,5-c]quinolin-2-one]	18	59	431
COc1ccc(-c2ccc3ncc4c(c3c2)n(-c2c(C)nn(C)c2C)c(=O)n4C)cn1 [Example 2.4, 8-(6-Methoxy-pyridin-3-yl)-3-methyl-1-(1,3,5-trimethyl-1H-pyrazol-4-yl)-1,3-dihydro-imidazo[4,5-c]quinolin-2-one]	448	65	33
CNC(=O)c1ccc(-c2ccc3ncc4c(c3c2)n(-c2cn(C)nc2C)c(=O)n4C)cc1 [Example 43.1, 4-[1-(1,3-Dimethyl-1H-pyrazol-4-yl)-3-methyl-2-oxo-2,3-dihydro-1H-imidazo[4,5-c]quinolin-8-yl]-N-methyl-benzamide]	< 3	14	218
COCc1cncc(-c2ccc3ncc4c(c3c2)n(-c2cn(C)nc2Cl)c(=O)n4C)c1 [Example 54.2, 1-(3-Chloro-1-methyl-1H-pyrazol-4-yl)-8-(5-methoxymethyl-pyridin-3-yl)-3-methyl-1,3-dihydro-imidazo[4,5-c]quinolin-2-one]	94	42	20
COCCOc1ccc(-c2ccc3ncc4c(c3c2)n(-c2cn(C)nc2C)c(=O)n4C)cc1OC [Example 30.1, 1-(1,3-Dimethyl-1H-pyrazol-4-yl)-8-[3-methoxy-4-(2-methoxy-ethoxy)-phenyl]-3-methyl-1,3-dihydro-imidazo[4,5-c]quinolin-2-one]	52	30	36
CCOc1cc(-c2ccc3ncc4c(c3c2)n(-c2cn(C)nc2C)c(=O)n4C)cnc1C [Example 85.1, 1-(1,3-Dimethyl-1H-pyrazol-4-yl)-8-(5-ethoxy-6-methyl-pyridin-3-yl)-3-methyl-1,3-dihydro-imidazo[4,5-c]quinolin-2-one]	17	< 5	3
CCOc1ccc(-c2ccc3ncc4c(c3c2)n(-c2cn(CC(=O)N3CCC3)nc2C)c(=O)n4C)cn1 [Example 138, 1-[1-(2-Azetidin-1-yl-2-oxo-ethyl)-3-methyl-1H-pyrazol-4-yl]-8-(6-ethoxy-pyridin-3-yl)-3-methyl-1,3-dihydro-imidazo[4,5-c]quinolin-2-one]	10	36	42
CCOc1ccc(-c2ccc3ncc4c(c3c2)n(-c2cn(CC(=O)N(C)CC)nc2C)c(=O)n4C)cn1 [Example 136, 2-{4-[8-(6-Ethoxy-pyridin-3-yl)-3-methyl-2-oxo-2,3-dihydro-imidazo[4,5-c]quinolin-1-yl]-3-methyl-pyrazol-1-yl}-N-ethyl-N-methyl-acetamide]	9	11	214
COCCn1c(=O)n(C)c2ncc(-c3ccc4ncc5c(c4c3)n(-c3cn(C)nc3C)c(=O)n5C)cc21 [Example 69, 1-(1,3-Dimethyl-1H-pyrazol-4-yl)-8-[1-(2-methoxy-ethyl)-3-methyl-2-oxo-2,3-dihydro-1H-imidazo[4,5-b]pyridin-6-yl]-3-methyl-1,3-dihydro-imidazo[4,5-c]quinolin-2-one]	639	755	36
CCOc1ccc(-c2ccc3ncc4c(c3c2)n(-c2cn(C)nc2C)c(=O)n4C)cn1 [Example 3.1, 1-(1,3-Dimethyl-1H-pyrazol-4-yl)-8-(6-ethoxy-pyridin-3-yl)-3-methyl-1,3-dihydro-imidazo[4,5-c]quinolin-2-one]	11	24	37
CCOc1ccc(-c2ccc3ncc4c(c3c2)n(-c2c(C)nn(C)c2C)c(=O)n4C)cc1OC [Example 29.2, 8-(4-Ethoxy-3-methoxy-phenyl)-3-methyl-1-(1,3,5-trimethyl-1H-pyrazol-4-yl)-1,3-dihydro-midazo[4,5-c]quinolin-2-one]	778	50	56
CCn1cc(-n2c(=O)n(C)c3cnc4ccc(-c5cnc(F)c(NC)c5)cc4c32)c(C)n1 [Example 150.1, 1-(1-Ethyl-3-methyl-1H-pyrazol-4-yl)-8-(6-fluoro-5-methylamino-pyridin-3-yl)-3-methyl-1,3-dihydro-imidazo[4,5-c]quinolin-2-one]	17	9	8

Other lines, results leading:

IC50 [1] [nM]	IC50 [2] [nM]	IC50 [3] [nM]	Structure (SMILES)
11	65	29	Cc1nn(C)cc1-n1c(=O)[nH]c2cnc3ccc(-c4cnc(N(C)C)nc4)cc3c21 [Example 207, 8-(2-Dimethylamino-pyrimidin-5-yl)-1-(1,3-dimethyl-1H-pyrazol-4-yl)-1,3-dihydro-imidazo[4,5-c]quinolin-2-one]
35	16	14	Cc1nn(C(C)C)cc1-n1c(=O)n(C)c2cnc3ccc(-c4cncc(C(C)(C)O)c4)cc3c21 [Example 215.1, 8-[5-(1-Hydroxy-1-methyl-ethyl)-pyridin-3-yl]-1-(1-isopropyl-3-methyl-1H-pyrazol-4-yl)-3-methyl-1,3-dihydro-imidazo[4,5-c]quinolin-2-one]
34	19	29	CNC(=O)c1cc(-c2ccc3ncc4c(c3c2)n(-c2cn(C)nc2C)c(=O)n4C)cnc1N [Example 224.1, 2-Amino-5-[1-(1,3-dimethyl-1H-pyrazol-4-yl)-3-methyl-2-oxo-2,3-dihydro-1H-imidazo[4,5-c]quinolin-8-yl]-N-methyl-nicotinamide]
64	26	15	Cc1nn(C)cc1-n1c(=O)n(C)c2cnc3ccc(-c4cnc5c(c4)C(C)(C)C(=O)N5C)cc3c21 [Example 233, 1-(1,3-Dimethyl-1H-pyrazol-4-yl)-3-methyl-8-(1,3,3-trimethyl-2-oxo-2,3-dihydro-1H-pyrrolo[2,3-b]pyridin-5-yl)-1,3-dihydro-imidazo[4,5-c]quinolin-2-one]
98	19	3	CCNc1cc(-c2ccc3ncc4c(c3c2)n(-c2c(C)nn(C)c2C)c(=O)n4C)cnc1Cl [Example 153.1, 8-(6-Chloro-5-ethylamino-pyridin-3-yl)-3-methyl-1-(1,3,5-trimethyl-1H-pyrazol-4-yl)-1,3-dihydro-imidazo[4,5-c]quinolin-2-one]
14	10	9	CCn1cc(-n2c(=O)n(C)c3cnc4ccc(-c5cnc(OC)nc5OC)cc4c32)c(C)n1 [Example 234.1, 8-(2,4-Dimethoxy-pyrimidin-5-yl)-1-(1-ethyl-3-methyl-1H-pyrazol-4-yl)-3-methyl-1,3-dihydro-imidazo[4,5-c]quinolin-2-one]
22	76	12	Cc1nn(CC(=O)N2CCC2)cc1-n1c(=O)n(C)c2cnc3ccc(-c4cncc(OC(C)C)c4)cc3c21 [Example 205, 1-[1-(2-Azetidin-1-yl-2-oxo-ethyl)-3-methyl-1H-pyrazol-4-yl]-8-(5-isopropoxy-pyridin-3-yl)-3-methyl-1,3-dihydro-imidazo[4,5-c]quinolin-2-one]
15	< 5	15	CCN(C)c1cncc(-c2ccc3ncc4c(c3c2)n(-c2cn(C)nc2C)c(=O)n4C)c1 [Example 176, 1-(1,3-Dimethyl-1H-pyrazol-4-yl)-8-[5-(ethyl-methyl-amino)-pyridin-3-yl]-3-methyl-1,3-dihydro-imidazo[4,5-c]quinolin-2-one]
40	57	13	CCNc1cc(-c2ccc3ncc4c(c3c2)n(-c2c(C)nn(CCO)c2C)c(=O)n4C)cnc1C [Example 210, 8-(5-Ethylamino-6-methyl-pyridin-3-yl)-1-[1-(2-hydroxy-ethyl)-3,5-dimethyl-1H-pyrazol-4-yl]-3-methyl-1,3-dihydro-imidazo[4,5-c]quinolin-2-one]
< 3	19	< 3	Cn1cc(-n2c(=O)n(C)c3cnc4ccc(-c5cnc(N)c(CO)c5)cc4c32)c(Cl)n1 [Example 169.3, 8-(6-Amino-5-hydroxymethyl-pyridin-3-yl)-1-(3-chloro-1-methyl-1H-pyrazol-4-yl)-3-methyl-1,3-dihydro-imidazo[4,5-c]quinolin-2-one]
39	23	35	CCOc1cc(-c2ccc3ncc4c(c3c2)n(-c2cn(C)nc2C)c(=O)n4C)cnc1COC [Example 197.1, 1-(1,3-Dimethyl-1H-pyrazol-4-yl)-8-(5-ethoxy-6-methoxymethyl-pyridin-3-yl)-3-methyl-1,3-dihydro-imidazo[4,5-c]quinolin-2-one]
